Reference: US11214803B2, “Modulators of YAP1 expression” (Ionis Pharmaceuticals, Inc., priority 2019, dated 2022)
Strand notation (5' to 3'): a small letter for the sugar, then the base; units joined by * are phosphorothioate-linked, units joined directly phosphodiester-linked; [ ] holds rarer units or linkages, { } end groups; capitals alone tell only the bases. k = constrained ethyl (cEt); [5mC] = 5-methylcytosine; d = 2'-deoxy (DNA)

Key:
[1] = Tolerability in Balb/c mice, plasma chemistry markers (Example 11); format: in vivo; conditions: 50 mg/kg subcutaneously twice a week for four weeks
Procedure: (§1) Balb/c mice were treated with modified oligonucleotides selected from studies described above and evaluated for changes in the levels of various plasma chemistry markers.
(§2) Groups of male Balb/c mice at 4-6 weeks of age (obtained from Taconic) were injected subcutaneously twice a week for four weeks (for a total of 8 treatments) with 50 mg/kg of modified oligonucleotides. One group of male Balb/c mice was injected with PBS. Mice were euthanized on day 26 post start of treatment (24 hours following the final administration).

Yap1 mRNA = assay: Dose-dependent inhibition of human Yap1 in A-431 cells (Example 6, 5,000 cells per well, RTS4814); format: cell-based; conditions: for % UTC 148 nM / % UTC 444 nM / % UTC 1333 nM / % UTC 4000 nM: approximately 48 hours; for Yap1 mRNA, % UTC: 48 hours
Procedure, shortened: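 A-431 cells (5,000/well) took up oligonucleotides by free uptake at various doses for about 48 h. Yap1 mRNA was measured by RT-PCR (RTS4814), normalised to RIBOGREEN total RNA and expressed as % untreated control; IC50 by linear regression on a log/linear plot.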

[2] = Tolerability in Balb/c mice, body and organ weights (Example 11); format: in vivo; conditions: 50 mg/kg subcutaneously twice a week for four weeks, end of study
Procedure: as §2
(§3) Body weights of Balb/c mice were measured at the end of the study, and the average body weight for each group is presented in the table below. Modified oligonucleotides that caused any changes in organ weights outside the expected range for modified oligonucleotides were excluded from further studies.

[3] = Tolerability in Balb/c mice, plasma chemistry markers (Example 10); format: in vivo; conditions: male Balb/c mice, 50 mg/kg subcutaneously twice a week for four weeks, day 26
Procedure: as §1, §2

[4] = Tolerability in Balb/c mice, body and organ weights (Example 10); format: in vivo; conditions: 50 mg/kg subcutaneously twice a week for four weeks, end of study
Procedure: as §2, §3

[5] = Table 53, A-431 cells, Yap1 mRNA, linear regression on a log/linear plot
[6] = Table 53, A-431 cells, free uptake, 148 nM, RTS4814
[7] = Table 53, A-431 cells, free uptake, 444 nM, RTS4814
[8] = Table 53, A-431 cells, free uptake, 1333 nM, RTS4814
[9] = Table 53, A-431 cells, free uptake, 4000 nM, RTS4814
[10] = Table 54, A-431 cells, Yap1 mRNA, linear regression on a log/linear plot
[11] = Table 54, A-431 cells, free uptake, 148 nM, RTS4814
[12] = Table 54, A-431 cells, free uptake, 444 nM, RTS4814
[13] = Table 54, A-431 cells, free uptake, 1333 nM, RTS4814
[14] = Table 54, A-431 cells, free uptake, 4000 nM, RTS4814
[15] = Table 55, 148 nM, free uptake, A-431 cells 5,000 cells per well, RTS4814
[16] = Table 55, 444 nM, free uptake, A-431 cells 5,000 cells per well, RTS4814
[17] = Table 55, 1333 nM, free uptake, A-431 cells 5,000 cells per well, RTS4814
[18] = Table 55, 4000 nM, free uptake, A-431 cells 5,000 cells per well, RTS4814
[19] = Table 55, A-431 cells 5,000 cells per well, free uptake, RTS4814

Substance	ALT [1]	AST [1]	BUN [1]	TBIL [1]	Kidney weight [2]	Liver weight [2]	Spleen weight [2]	body weight [2]	ALT (U/L) [3]	AST (U/L) [3]	TBIL [3]	Kidney weight [4]	Liver weight [4]	Spleen weight [4]	body weight [4]	IC50 (Yap1 mRNA; [10])	% UTC 148 nM (Yap1 mRNA; [11])	% UTC 444 nM (Yap1 mRNA; [12])	% UTC 1333 nM (Yap1 mRNA; [13])	% UTC 4000 nM (Yap1 mRNA; [14])	also measured
715415 (k[5mC]*kG*kA*dA*d[5mC]*dA*dT*dG*d[5mC]*dT*dG*dT*dG*kG*kA*kG; antisense) [compound 715415]	1075 U/L	701 U/L	17 mg/dL	0.14 mg/dL	0.40 g	1.79 g	0.17 g	25 g	–	–	–	–	–	–	–	–	–	–	–	–	IC50 (Yap1 mRNA; [5]): 1800 nM; % UTC 148 nM (Yap1 mRNA; [6]): 84 % UTC; % UTC 444 nM (Yap1 mRNA; [7]): 59 % UTC; % UTC 1333 nM (Yap1 mRNA; [8]): 55 % UTC; % UTC 4000 nM (Yap1 mRNA; [9]): 42 % UTC
715593 (kA*kT*kT*dT*d[5mC]*dT*dT*dT*dG*dG*d[5mC]*dA*dG*kA*kG*kA; antisense) [compound 715593]	–	–	–	–	–	–	–	–	628 U/L	610 U/L	0.11 mg/dL	0.30 g	1.12 g	0.13 g	19 g	–	–	–	–	–	–
715484 (kT*kA*k[5mC]*dT*d[5mC]*dT*dT*dT*dG*dG*dA*dA*dA*k[5mC]*k[5mC]*kA; antisense) [compound 715484]	–	–	–	–	–	–	–	–	116 U/L	110 U/L	0.15 mg/dL	0.37 g	1.47 g	0.13 g	22 g	–	–	–	–	–	–
716481 (antisense kT*k[5mC]*kA*dG*d[5mC]*dA*dT*dA*dG*dA*dA*dG*dT*kA*kG*kG) [compound 716481]	1935 U/L	2248 U/L	21 mg/dL	0.46 mg/dL	0.36 g	1.99 g	0.13 g	22 g	–	–	–	–	–	–	–	2000 nM	89 % UTC	90 % UTC	58 % UTC	32 % UTC	–
716502 (antisense k[5mC]*kA*k[5mC]*dA*dG*dT*dG*dA*dT*dT*dG*d[5mC]*dA*kT*kT*kT) [compound 716502]	2920 U/L	1329 U/L	17 mg/dL	0.27 mg/dL	0.42 g	2.18 g	0.10 g	23 g	–	–	–	–	–	–	–	800 nM	73 % UTC	57 % UTC	45 % UTC	30 % UTC	–
716455 (antisense kG*kT*kT*dA*dT*dG*dT*dT*dT*dG*dG*dG*dT*kG*kT*kG) [compound 716455]	1089 U/L	1193 U/L	22 mg/dL	0.25 mg/dL	0.32 g	2.66 g	0.14 g	21 g	–	–	–	–	–	–	–	–	–	–	–	–	Yap1 mRNA, % UTC (Yap1 mRNA; [15]): 95 % UTC; Yap1 mRNA, % UTC (Yap1 mRNA; [16]): 70 % UTC; Yap1 mRNA, % UTC (Yap1 mRNA; [17]): 49 % UTC; Yap1 mRNA, % UTC (Yap1 mRNA; [18]): 25 % UTC; IC50 (Yap1 mRNA; [19]): 1200 nM
715582 (kG*kT*k[5mC]*dA*dA*dG*d[5mC]*d[5mC]*dT*dG*dT*d[5mC]*dT*kG*kG*kA; antisense) [compound 715582]	–	–	–	–	–	–	–	–	2460 U/L	2320 U/L	2.09 mg/dL	0.38 g	1.46 g	0.16 g	22 g	> 4000 nM	98 % UTC	63 % UTC	93 % UTC	70 % UTC	–
715557 (kG*kG*kA*dA*dG*dT*dT*dA*dT*dT*d[5mC]*dA*dG*k[5mC]*kA*kG; antisense) [compound 715557]	–	–	–	–	–	–	–	–	1755 U/L	2377 U/L	0.28 mg/dL	0.31 g	1.96 g	0.12 g	21 g	–	–	–	–	–	–
716513 (antisense kA*kA*kT*d[5mC]*dT*dT*dA*dA*dT*d[5mC]*dT*dG*dT*kG*kG*k[5mC]) [compound 716513]	325 U/L	229 U/L	17 mg/dL	0.14 mg/dL	0.41 g	1.59 g	0.18 g	25 g	–	–	–	–	–	–	–	–	–	–	–	–	Yap1 mRNA, % UTC (Yap1 mRNA; [15]): 82 % UTC; Yap1 mRNA, % UTC (Yap1 mRNA; [16]): 73 % UTC; Yap1 mRNA, % UTC (Yap1 mRNA; [17]): 39 % UTC; Yap1 mRNA, % UTC (Yap1 mRNA; [18]): 39 % UTC; IC50 (Yap1 mRNA; [19]): 1400 nM
715473 (kT*k[5mC]*kT*dT*dT*dA*dT*d[5mC]*dT*dA*dG*d[5mC]*dT*kT*kG*kG; antisense) [compound 715473]	3046 U/L	2861 U/L	20 mg/dL	2.77 mg/dL	0.31 g	1.46 g	0.09 g	20 g	–	–	–	–	–	–	–	–	–	–	–	–	IC50 (Yap1 mRNA; [5]): 1300 nM; % UTC 148 nM (Yap1 mRNA; [6]): 89 % UTC; % UTC 444 nM (Yap1 mRNA; [7]): 67 % UTC; % UTC 1333 nM (Yap1 mRNA; [8]): 50 % UTC; % UTC 4000 nM (Yap1 mRNA; [9]): 30 % UTC
716480 (antisense kG*k[5mC]*kA*dA*dG*dT*d[5mC]*dT*dT*dG*dT*dA*dA*kG*kT*kA) [compound 716480]	2156 U/L	844 U/L	19 mg/dL	0.14 mg/dL	0.34 g	2.58 g	0.10 g	21 g	–	–	–	–	–	–	–	–	–	–	–	–	Yap1 mRNA, % UTC (Yap1 mRNA; [15]): 80 % UTC; Yap1 mRNA, % UTC (Yap1 mRNA; [16]): 56 % UTC; Yap1 mRNA, % UTC (Yap1 mRNA; [17]): 38 % UTC; Yap1 mRNA, % UTC (Yap1 mRNA; [18]): 39 % UTC; IC50 (Yap1 mRNA; [19]): 1000 nM
715609 (kT*kG*kT*dG*dT*dA*dG*dG*d[5mC]*dT*dG*dA*d[5mC]*kT*kT*kA; antisense) [compound 715609]	–	–	–	–	–	–	–	–	1120 U/L	2941 U/L	0.67 mg/dL	0.33 g	2.64 g	0.10 g	21 g	–	–	–	–	–	–
715558 (k[5mC]*kA*kG*dG*dA*dA*dG*dT*dT*dA*dT*dT*d[5mC]*kA*kG*k[5mC]; antisense) [compound 715558]	–	–	–	–	–	–	–	–	65 U/L	91 U/L	0.16 mg/dL	0.38 g	1.33 g	0.12 g	22 g	> 4000 nM	94 % UTC	112 % UTC	80 % UTC	66 % UTC	–
715480 (kG*kG*kA*dA*dA*d[5mC]*d[5mC]*dA*dT*dT*dA*dT*dT*kA*k[5mC]*kT; antisense) [compound 715480]	–	–	–	–	–	–	–	–	791 U/L	439 U/L	0.15 mg/dL	0.34 g	1.64 g	0.12 g	22 g	–	–	–	–	–	IC50 (Yap1 mRNA; [5]): > 4000 nM; % UTC 148 nM (Yap1 mRNA; [6]): 91 % UTC; % UTC 444 nM (Yap1 mRNA; [7]): 79 % UTC; % UTC 1333 nM (Yap1 mRNA; [8]): 67 % UTC; % UTC 4000 nM (Yap1 mRNA; [9]): 59 % UTC
716424 (antisense kG*k[5mC]*kA*dA*dT*dG*dG*dA*d[5mC]*dA*dA*dG*dG*kA*kA*kG) [compound 716424]	2077 U/L	1422 U/L	20 mg/dL	0.22 mg/dL	0.36 g	2.08 g	0.15 g	23 g	–	–	–	–	–	–	–	2000 nM	76 % UTC	69 % UTC	51 % UTC	44 % UTC	–
